For test [1], the system named is human platelet aggregation by ADP. In words: Determination of platelet aggregation in vitro (by ADP), human platelet rich plasma. The note with it: human PRP, n = 3, ADP 0.6-1 μM, 37° C., read-out: Inhibition of platelet aggregation by ADP, IC50, human. The class given is cell-based. Here is the method: (§1) Method […] The sodium citrate--supplemented blood was centrifuged at 950 rpm for 10 minutes and 2,000 rpm for 10 minutes respectively at room temperature to obtain platelet rich plasma (PRP) and platelet poor plasma (PPP). PRP was diluted with PPP to adjust the number of platelets to be 500,000/μl. Platelet aggregation measured spectroscopically in accordance with Born's method (Nature 194: 927, 1962) using an aggregometer (HEMA TRACER VI Toa Iyo Denshi). The PRP (250 μl) was incubated at 37° C. for 2 minutes, to which was then added 25 μl of a test drug solution. Two minutes later, 25 μl of an agent for causing agglutination. The effect of the test drug was shown by the inhibition rate of the maximum aggregation rate of the test group against that of the control group. ADP was used in the minimum concentration (0.6-1 μM) capable of obtaining maximum aggregation. Inhibitory effect on platelet aggregation by ADP of the compounds of Working Examples

Test [2] concerns guinea pig platelet aggregation by ADP. In words: Determination of platelet aggregation in vitro (by ADP), guinea pig platelet rich plasma. The following applies: Cavia porcellus, guinea pig PRP, n = 3, ADP 0.6-1 μM, 37° C., read-out: Inhibition of platelet aggregation by ADP, IC50, guinea pigs. Type of test: cell-based. As for the experimental part:
as §1

Test [3] concerns activated platelets of guinea pigs. In words: Binding experiment in vitro: specific binding of 125I-fibrinogen to activated platelets of guinea pigs. The note with it: n=3; 125I-fibrinogen 0.1 μM; ADP 5×10^-5 M; 2 hours at room temperature; read-out: IC50 value against the specific binding of 125I-fibrinogen to activated platelets of guinea pigs. Set-up: species or system guinea pig. Here is the method: Method Washed platelets were prepared from sodium citrate--supplemented blood of guinea pig, which were suspended in a Hepes Tyrode solution (pH 7.5) to adjust the number of platelets to be 500,000/μl. To 70 μl of this suspension was added 10 μl of an ADP solution (final concentration: 5×10^-5 M), and the mixture was left standing for 15 minutes at room temperature. To the mixture were added a solution of the test drug and 80 μl of a ^125 I-fibrinogen solution (final concentration: 0.1 μM), which was left standing for 2 hours at room temperature. Onto a 20% sucrose buffer solution was overlaid 100 μl of the reaction mixture, which was subjected to centrifuge at 3,000 rpm to separate platelet-adhesive ^125 I-fibrinogen from non-adhesive one. The radioactivity of the platelet-adhesive ^125 I-fibrinogen was determined. From the value obtained from the test groups against specific binding of the control group (processed with the buffer solution), the adhesion inhibiting ratio was determined. Action of the compound of Working Example 1 against the specific binding of ^125 I-fibrinogen to activated platelets of guinea pigs.

Test [4] concerns platelet aggregation caused by ADP. In words: Ex vivo platelet aggregation experiment (ADP) after oral administration to guinea pigs. Type of test: in vivo, guinea pig. As for the experimental part:
Method After fasting overnight, guinea pigs were orally administered with a test drug solution (2 ml/kg). Blood was collected from the animals, under anesthesia with pentobarbital, after 1, 4 and 24 hours respectively. By the method described above, PRP was prepared and the platelet aggregation caused by ADP was measured. The rate of inhibition of aggregation was determined by the aggregation rate obtained in the test groups against that obtained in the control. The test drug was administered orally as a solution in distilled water. ADP aggregation inhibiting action by the compound of working Example 1 in guinea pigs

Turning to `COC(=O)C[C@H]1C(=O)N(CC(=O)O)CCN1C(=O)C(Cc1ccc(O)c(O)c1)NC(=O)c1ccc(C(=N)N)cc1` (mixture of isomers) [Working Example 24], the IC50 (in general, the concentration needed to halve the response being measured) in test [1] stood at 24 nM; in test [2] it was 46 nM.
Regarding `COC(=O)C[C@H]1C(=O)N(CC(=O)O)CCN1C(=O)[C@H](Cc1ccc(O)cc1)NC(=O)c1ccc(C(=N)N)cc1.Cl` [Working Example 1, (S)-4-(4-Amidinobenzoyl-L-Tyrosyl)-3-Methoxycarbonylmethyl-2-Oxopiperazine-1-Acetic Acid Hydrochloride], the IC50 came to 2.7 nM in test [3], 20 nM in test [1] and 37 nM in test [2]. Also, the “ADP aggregation inhibition rate” value in test [4] (3 mg/kg p.o., after 1 hour, n=4) was 100%; in test [4] (3 mg/kg p.o., after 4 hour, n=4), 100%; in test [4] (3 mg/kg p.o., after 24 hour, n=3), 100%.
With `COC(=O)C[C@H]1C(=O)N(CC(=O)O)CCN1C(=O)[C@H](Cc1ccc(OC)cc1)NC(=O)c1ccc(C(=N)N)cc1` [Working Example 3, (S)-4-(4-Amidinobenzoyl-O-Methyl-L-Tyrosyl)-3-Methoxycarbonylmethyl-2-Oxopiperazine-1 -Acetic Acid], the figures for the IC50 in test [1] and in test [2] were 10 nM and 15 nM, respectively. For the same compound, the “ADP aggregation inhibition rate” value in test [4] (1 mg/kg p.o., after 1 hour, n=6) is 95%; in test [4] (1 mg/kg p.o., after 4 hour, n=6), 100%.
As for `CCOc1ccc(C[C@H](NC(=O)c2ccc(C(=N)N)cc2)C(=O)N2CCN(CC(=O)O)C(=O)[C@@H]2CC(=O)OC)cc1` [Working Example 4, (S)-4-(4-amidinobenzoyl-O-ethyl-L-tyrosyl)-3-methoxycarbonylmethyl-2-oxopiperazine-1-acetic acid], the IC50 in test [2] was found to be 120 nM.
As to `CCCOc1ccc(C[C@H](NC(=O)c2ccc(C(=N)N)cc2)C(=O)N2CCN(CC(=O)O)C(=O)[C@@H]2CC(=O)OC)cc1` [Working Example 5], the IC50 in test [1] turned out to be 40 nM; in test [2], 34 nM.
On to `C=CCOc1ccc(C[C@H](NC(=O)c2ccc(C(=N)N)cc2)C(=O)N2CCN(CC(=O)O)C(=O)[C@@H]2CC(=O)OC)cc1` [Working Example 18], for which the IC50 in test [1] amounted to 20 nM; in test [2], 26 nM.
The like results for `COC(=O)C[C@H]1C(=O)N(CC(=O)O)CCN1C(=O)[C@H](Cc1ccc(F)cc1)NC(=O)c1ccc(C(=N)N)cc1` [Working Example 21] were, in that order, 26 nM and 38 nM.
In the case of `COC(=O)C[C@H]1C(=O)N(CC(=O)O)CCN1C(=O)[C@H](Cc1ccc(O)c(F)c1)NC(=O)c1ccc(C(=N)N)cc1` [Working Example 22], the IC50 in test [1] came out at 18 nM; in test [2] it was 47 nM.
For `COC(=O)C[C@H]1C(=O)N(CC(=O)O)CCN1C(=O)[C@H](Cc1ccc(O)cc1F)NC(=O)c1ccc(C(=N)N)cc1` [Working Example 23], in that order: 17 nM and 38 nM.
In the case of `COC(=O)C[C@H]1C(=O)N(CC(=O)O)CCN1C(=O)[C@H](Cc1ccc(OC)cc1)NC(=O)c1ccc(CCN)cc1` [Working Example 31], the figures for the IC50 in test [1] and in test [2] were 12 nM and 18 nM, respectively.

For the origin of these results see patent publication US5550131A, “2-piperazinone compounds and their use” (Takeda Chemical Industries, Ltd., priority 1993, dated 1996).
